The nature of this series: Phase II single-dose oral pharmacokinetic study of urolithin A in a maltodextrin formulation. In kind it is in vivo. Particulars: human, n = 12. The procedure:
A phase II clinical study was carried out to determine the bioavailability of urolithin A when dosed in a formulation containing maltodextrin to human subjects.
In particular, the pharmacokinetic parameters of the compound were investigated in an open-label, parallel-arm, randomized, single-period, single-dose pharmacokinetic study. Subject enrolled where healthy volunteers, both males and females aged between 18 and 45 years. Formulation details and clinical study procedures are described in the method section below.
Subjects were administered orally as a single dose with a maltodextrin formulation (Table 2). The formulations was administered to deliver a total dose of 500 mg Urolithin A per dosing. Plasma samples were collected pre-dosing and at sequential time points after dosing, i.e. 1 hr, 4 hrs, 6 hrs, 8 hrs, 12 hrs, 24 hrs, 72 hrs. Plasma levels of parent Urolithin A were determined and expressed as pg/ml.
A total of 24 participants were enrolled in the study (12 subject per group). Subjects were healthy male and female participants. Subjects were selected after a screening to meet all the following criteria aged between 18 and 45 years; with Body Mass Index (BMI) between 18.50-30.00 kg/m2;
Maltodextrin formulation (urolithin A Powder with Maltodextrin): half a scoop (1.5 g) of powder, containing 500 mg of Urolithin A. Composition is described in Table 2.
Mode of Administration: Participants take the powder orally on an empty stomach in a sitting position, after an overnight fast. The powder was mixed with 240±2 mL of milk, shaken well, and consumed. It was ensured that all liquid was swallowed without leaving any residue behind or retaining in the mouth.
This study was an open-label, parallel-arm, single-period, single-dose, randomized study wherein each participant received a single dose of allocated investigational product administered orally to the trial participants in a sitting posture. The formulation was administered with about 240 mL of whole milk (3% fat content) in a sitting posture.
PK blood samples were collected at pre-dose and post-dose at 1 hr, 4 hrs, 6 hrs, 8 hrs, 12 hrs, 24 hrs, 72 hrs. PK blood samples were collected by direct vein puncture or using a venous cannula. When multiple blood sample collection were scheduled on the same day from the same participant, at the discretion of the investigator, a venous cannula was inserted and blood samples collected from the cannula to avoid multiple pricks. For the same, an intravenous (IV) cannula was placed in a forearm vein or dorsal aspect of the hand of the participants. Intravenous indwelling cannula kept in situ as long as required by injecting 0.3 mL of normal saline or heparinized saline (to prevent the cannula from clogging). Because the cannula contains stagnant blood and normal or heparinized saline, it was […] before collection of the pharmacokinetic blood sample, for the same, 0.3 mL (or as appropriate depending upon the size and length of the cannula) of normal saline/heparinized saline diluted blood was discarded prior to collection of the next PK sample. […] All PK blood samples was collected or transferred (in case if collected in a syringe) in K2-EDTA blood collection tubes.
After collection, the PK blood samples were centrifuged at 4000 RPM at 4° C.±2° C. for 10 minutes. The plasma was separated and transferred to labeled polypropylene tubes and stored in a freezer at −80° C.±10° C. Pharmacokinetics parameters of Urolithin A were calculated from the concentration Vs. time data using Phoenix@WinNonlin® professional software (Version 8.1.1 or higher) (Certara, Princeton, New Jersey, USA).

In the case of `O=c1oc2cc(O)ccc2c2ccc(O)cc12` [Urolithin A], the “Urolithin concentrations in blood, Mean” value (Pre-dose, plasma parent Urolithin A) amounted to 1.00 pg/mL. Moreover, where the note is “both sexes, 1 h after single oral 500 mg Urolithin A in maltodextrin formulation, plasma, read-out: Urolithin concentrations in blood, Mean”, the concentration at 1 h came to 0.551 ng/mL. Besides, the concentration at 4 h (both sexes, 4 h after single oral 500 mg Urolithin A in maltodextrin formulation, plasma, read-out: Urolithin concentrations in blood, Mean) amounted to 1.07 ng/mL. Besides, the concentration at 6 h (both sexes, 6 h after single oral 500 mg Urolithin A in maltodextrin formulation, plasma, read-out: Urolithin concentrations in blood, Mean) was 1.4 ng/mL. Under “both sexes, 8 h after single oral 500 mg Urolithin A in maltodextrin formulation, plasma, read-out: Urolithin concentrations in blood, Mean”, the concentration at 8 h worked out at 0.775 ng/mL. Besides, where the note is “both sexes, 12 h after single oral 500 mg Urolithin A in maltodextrin formulation, plasma, read-out: Urolithin concentrations in blood, Mean”, the concentration at 12 h came to 0.72 ng/mL. Moreover, the concentration at 24 h (both sexes, 24 h after single oral 500 mg Urolithin A in maltodextrin formulation, plasma, read-out: Urolithin concentrations in blood, Mean) came out at 0.404 ng/mL. The concentration at 72 h (both sexes, 72 h after single oral 500 mg Urolithin A in maltodextrin formulation, plasma, read-out: Urolithin concentrations in blood, Mean) came out at 0.167 ng/mL.
